Measurements: EP0460883B1, “Process for beta-hydroxy-alpha-amino acids” (THE UNIVERSITY OF NOTRE DAME DU LAC, priority 1990, dated 1991)

Tests used:
[1] = target: T1, serine hydroxymethyltransferase (SHMT) (Oryctolagus cuniculus, UniProt P07511); experiment: Conversion of aldehyde substrates and glycine to β-hydroxy-α-amino acids by SHMT (HPLC assay); format: biochemical, rabbit; design: key: + = conversion; - = no detectable conversion
T1 construct: Three such sources are rabbit liver (LaVerne Schirch and Merle Mason, J. Biol. Chem., Vol. 237, No. 8, August 1962); from tissue; host or cells: rabbit liver
T1 sequence (P07511 2-484 limits assumed): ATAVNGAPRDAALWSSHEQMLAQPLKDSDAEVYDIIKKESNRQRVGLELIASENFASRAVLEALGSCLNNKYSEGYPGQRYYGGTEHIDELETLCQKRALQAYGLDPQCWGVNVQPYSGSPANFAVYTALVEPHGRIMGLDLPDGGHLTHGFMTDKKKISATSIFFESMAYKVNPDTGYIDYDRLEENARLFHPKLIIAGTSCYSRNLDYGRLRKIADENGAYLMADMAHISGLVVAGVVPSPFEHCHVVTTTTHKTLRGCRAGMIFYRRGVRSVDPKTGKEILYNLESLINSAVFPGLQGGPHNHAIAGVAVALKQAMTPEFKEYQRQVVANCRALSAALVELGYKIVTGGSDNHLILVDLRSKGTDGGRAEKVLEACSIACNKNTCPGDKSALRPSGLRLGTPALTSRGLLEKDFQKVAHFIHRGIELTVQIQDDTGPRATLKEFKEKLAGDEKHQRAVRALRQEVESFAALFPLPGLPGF
Experimental: (§1) The following Table 1 lists representative aldehyde substrates which were converted in the process to β-hydroxy-α-amino acids with SHMT from two sources. The conversion of the substrates in Table 1 was carried out by incubating the substrate and glycine with SHMT under the conditions of the process. A number of the process conditions used were common to all of the substrates and are detailed in the following paragraphs. Wherever exceptions occurred they are noted in each instance.
(§2) The incubations were carried out in 10 mM phosphate buffer, pH 7.3 containing pyridoxal 5′-phosphate at a concentration of about 80 µM. All solutions were prepared from distilled, deionized water for best results. The conversions were carried out at about 37°C in sealed, 500 µL polypropylene micro-centrifuge vials in a constant-temperature water bath. The vials were protected from light except when removed from the water bath for removal of aliquots for analysis. With all conversions an enzyme blank incubation was carried out in parallel with the SHMT incubation. The total volume of the incubation mixture was typically about 200 µL. The conditions in the blank were identical to those of the incubation mixture except for the absence of the enzyme.
(§3) The process can be monitored for production of the β-hydroxy-α-amino acid by removing aliquots from the incubation mixture from time to time and assaying the samples by HPLC separation and fluorescence detection of o-phthalaldehyde derived isoindoles of all primary amine compounds present in the mixture. The assay procedure is described by Jones, B.N.; Gilligan, J. P., J. Chrom. 1983, 266, 471; Jones, B. N. et al., J. Liq. Chrom. 1981, 4,565, and Simons, Jr., S. S. et al., J. Am Chem. Soc. 1976, 98, 7098. HPLC analysis of both the incubation mixture and the enzyme blank allowed determination of which peak(s) on the chromatograms could be assigned to enzyme products.

[2] = test system: serine hydroxymethyltransferase (SHMT); experiment: as above; format: biochemical, corn; design: key: + = conversion; - = no detectable conversion
Experimental: as §1, §2, §3
All of the following procedures were carried out at 4°C. Washed 5-7 day old corn seedlings were homogenized in a Waring blender in 100 mM potassium monohydrogen phosphate containing 1 mM disodium ethylenediaminetetraacetate (EDTA), 1 mM dithiothreitol, and 125 µM of pyridoxal 5'-phosphate. The mix contained approximately 960 g of seedlings per liter. The homogenate was filtered through cheese cloth and the filtrate was subjected to ammonium sulfate precipitation. The protein which precipitated with 35-50% saturation in ammonium sulfate upon centrifuging at 13,800 x g for 40 min. was dissolved in 10 mM phosphate buffer, pH 7.8, containing […] pyridoxal 5'-phosphate and 1 mM EDTA. The solution was dialyzed and concentrated to 5-15 mg of protein/ml in the same buffer without EDTA present. Assay for aldolase activity of the protein consisted of a coupled system between the aldolase-catalyzed retroaldol of L-allo-threonine with the NADH (reduced form of nicotinamide adenine dinucleotide) dependent reduction of the resulting acetaldehyde by yeast alcohol dehydrogenase (ADH). Specific activity averaged 78 milliunits/mg of protein. One unit of enzyme activity is defined as that amount of enzyme required to cause a change of one optical density unit (at 340 nm) per minute at room temperature in the presence of ADH, 120 mM L-allo-threonine, 125 µM PLP, and 120 µM NADH in 100 mM phosphate buffer, pH 7.5.

[3] = incubation with glycine, 10 mM phosphate buffer pH 7.3, pyridoxal 5′-phosphate about 80 µM, about 37°C

| Structure (SMILES) | Aldehyde (RCHO) Substrates for SHMT, Enzyme Rabbit Liver [1, 3] | Aldehyde (RCHO) Substrates for SHMT, Enzyme Corn Seedlings [2, 3] | Aldehyde (RCHO) Substrates for SHMT, Enzyme Rabbit Liver ([1]; as the other substrates, but VO3- (metavanadate) was present) | Aldehyde (RCHO) Substrates for SHMT, Enzyme Corn Seedlings ([2]; as the other substrates, but tetrahydrofolate was present) |
| --- | --- | --- | --- | --- |
| O=CCCc1ccco1 | + | - |  |  |
| CC(=O)C=O [-C(O)CH3, pyruvaldehyde] |  |  | + | + |
| COC(=O)CCCC=O [-CH2CH2CH2CO2CH3, Glutaric semialdehyde methyl ester] | + | + |  |  |
| CC(C)OC(=O)CCC=O [-CH2CH2CO2(CH3)2, succinic semialdehyde isopropyl ester] | + |  |  |  |
| O=CCCCOC=O [-CH2CH2CH2OCHO, O-formyl 4-hydroxybutanal] | + |  |  |  |
| COC(=O)CCC=O [-CH2CH2CO2CH3, succinic semialdehyde methyl ester] | + | + |  |  |
| CC=O [-CH3, acetaldehyde] | + | + |  |  |
| CCCC=O [-CH2CH2CH3, n-butanal] | + |  |  |  |
| O=CCOCc1ccccc1 [-CH2OCH2C6H5] |  | + |  |  |
| O=CC(=O)O [-CO2H] | - | - |  |  |
| CCC=O [-CH2CH3, propionaldehyde] |  | + |  |  |
| O=Cc1ccccc1 [Example C6H5, benzaldehyde] | + | - |  |  |
| O=Cc1ccco1 [Example 2-furyl, 2-furfural] | + | + |  |  |
